# In patent publication US4421747A, “Inflammation-preventing pharmaceutical composition of oral administration” (A. Nattermann & Cie. GmbH, priority 1981, dated 1983):
# Read-outs that look alike come from different tables or passages of the source.
# What was measured:
# [1] = tested on: bleeding stomach ulcer; assay: Ulcer development (bleeding stomach ulcer provoked by oral application, mean ulcer factor); assay type: in vivo, Wistar-rats; conditions: for ED50: Rattus norvegicus, read-out: oral ED50
# Description: The development of the ulcer was determined in accordance with
# L. Mariani, "Eur. J. Toxicol.
# R. Menguy & L. Desbaillets, "Proc. Soc. exp.
# Ten male and ten female Wistar-rats (120 to 150 grams, in weight) which have not fed for 16 hours, were used for these tests. The bleeding stomach ulcer was provoked by oral application of the active substance. After 3.5 hours, the animals are killed and the stomach extracted, opened along the wide curvature and stretched onto a "Styropor" plate. The mean ulcer factor of the test and of the control group are determined. The variation is weighted in percentages as prevention of the ulcer formation.
# [2] = tested on: rat paw oedema; assay: rat-paw-oedema test (carragenin); assay type: in vivo; conditions: for ED50: 3 h, read-out: oral ED50; for Prevention of Oedema: Table VII, 12 animals; for Effectiveness applied to Rat Paw Oedema: Table VIII, Dosage 10.0 mg/kg KGW, 12 Animals, prevention of oedema in percentages
# Description: On one hind paw of each rat (weight 200 to 250 grams) an oedema was caused to develop by the "subplantane" application of carragenin (0.5% in a 0.9% NaCl solution) in the amount of 0.1 ml solution per paw.
# After the application of the test substance, its volume not to exceed 10 ml per kg of body weight, the volume of the paw is determined in an overflow ("Ueberlauf"). After three hours the final value is ascertained. The test is carried out for every dosage by using 10 test and 10 control animals of one sex and repeated with the identical number of animals of the other sex. For the purpose of evaluation, the prevention of the oedema is expressed in percentages relative to the control group.
# [3] = reference substances, rat-paw-oedema test, oral
# [4] = Table V, oral, Dosage One cc per mg/kg of Body Weight (KGW), by proportion Indometacine:Phospholipon 100
smiles,measurement,setting,value
"CC(=O)Oc1ccccc1C(=O)O [Acetyl-Salicylic Acid, acetyl-salicylic acid]",Ulcer Index,"[1]; Table I, oral, 200 mg/kg KGW, mixture molar ratio Acetyl-Salicylic Acid:Phospholipon 100 = 2:1, 3.5 h, n=10",1.20 ± 0.20
same,Incidence of Ulcers,"[1]; Table I, oral, 200 mg/kg KGW, without resp. with p^+ (Phospholipon 100, 2:1)",70%
same,Ulcer Index,"[1]; Table I, oral, 400 mg/kg KGW, mixture molar ratio Acetyl-Salicylic Acid:Phospholipon 100 = 2:1, 3.5 h, n=10",1.10 ± 0.50
same,Incidence of Ulcers,"[1]; Table I, oral, 400 mg/kg KGW, without resp. with p^+ (Phospholipon 100, 2:1)",50%
same,Ulcer Index,"[1]; Table I, oral, 800 mg/kg KGW, mixture molar ratio Acetyl-Salicylic Acid:Phospholipon 100 = 2:1, 3.5 h, n=10",1.20 ± 0.20
same,Incidence of Ulcers,"[1]; Table I, oral, 800 mg/kg KGW, without resp. with p^+ (Phospholipon 100, 2:1)",80%
CC(=O)OCC(=O)[C@@]1(O)CC[C@H]2[C@@H]3CCC4=CC(=O)CC[C@]4(C)[C@H]3[C@@H](O)C[C@@]21C [Hydrocortisoneacetate],ED50,[2]; [3],19 mg/kg
"CC(C)Cc1ccc(C(C)C(=O)O)cc1 (stereo not shown) [Ibuprofen, 2-(4-isobutylphenyl)-propinic acid]",Incidence of Ulcers,"[1]; Table VI, oral, 5 mg/kg KGW, one value printed for without and with p^+ (Phospholipon 100, 1:1)",20%
same,Incidence of Ulcers,"[1]; Table VI, oral, 10 mg/kg KGW, without resp. with p^+ (Phospholipon 100, 1:1)",20%
same,Incidence of Ulcers,"[1]; Table VI, oral, 20 mg/kg KGW, without resp. with p^+ (Phospholipon 100, 1:1)",40%
same,Incidence of Ulcers,"[1]; Table VI, oral, 30 mg/kg KGW, without resp. with p^+ (Phospholipon 100, 1:1)",50%
same,Ulcer Index,"[1]; Table VI, rat, oral, 5 mg/kg KGW, mixture molar ratio Ibuprofen:Phospholipon 100 = 1:1, 3.5 h, n=10",0.20 ± 0.13
same,Ulcer Index,"[1]; Table VI, rat, oral, 10 mg/kg KGW, mixture molar ratio Ibuprofen:Phospholipon 100 = 1:1, 3.5 h, n=10",0.30 ± 0.15
same,Ulcer Index,"[1]; Table VI, rat, oral, 20 mg/kg KGW, mixture molar ratio Ibuprofen:Phospholipon 100 = 1:1, 3.5 h, n=10",0.50 ± 0.22
same,Ulcer Index,"[1]; Table VI, rat, oral, 30 mg/kg KGW, mixture molar ratio Ibuprofen:Phospholipon 100 = 1:1, 3.5 h, n=10",0.71 ± 0.30
COc1ccc2c(c1)c(CC(=O)O)c(C)n2C(=O)c1ccc(Cl)cc1 [Indometacine],Ulcer Index,"[1]; Table III, oral, 5 mg/kg KGW, mixture molar ratio Indometacine:Phospholipon 100 = 2:1, 3.5 h, n=10",1.20 ± 0.30
same,Incidence of Ulcers,"[1]; Table III, oral, 5 mg/kg KGW, without resp. with p^+ (Phospholipon 100, 2:1)",70%
same,Ulcer Index,"[1]; Table III, oral, 10 mg/kg KGW, mixture molar ratio Indometacine:Phospholipon 100 = 2:1, 3.5 h, n=10",1.90 ± 0.90
same,Incidence of Ulcers,"[1]; Table III, oral, 10 mg/kg KGW, without resp. with p^+ (Phospholipon 100, 2:1)",90%
same,Ulcer Index,"[1]; Table III, oral, 20 mg/kg KGW, mixture molar ratio Indometacine:Phospholipon 100 = 2:1, 3.5 h, n=10",1.50 ± 0.40
same,Incidence of Ulcers,"[1]; Table III, oral, 20 mg/kg KGW, without resp. with p^+ (Phospholipon 100, 2:1)",100%
same,Incidence of Ulcers,"[1]; Table IV, oral, 5 mg/kg KGW, without resp. with p^+ (Phospholipon 45, 1:2)",80%
same,Incidence of Ulcers,"[1]; Table IV, oral, 10 mg/kg KGW, one value printed for without and with p^+ (Phospholipon 45, 1:2)",90%
same,Incidence of Ulcers,"[1]; Table IV, oral, 20 mg/kg KGW, one value printed for without and with p^+ (Phospholipon 45, 1:2)",100%
same,Incidence of Ulcers,"[1]; Table IV, oral, 30 mg/kg KGW, without resp. with p^+ (Phospholipon 45, 1:2)",80%
same,Ulcer Index,"[1]; Table IV, rat, oral, 5 mg/kg KGW, mixture molar ratio Indometacine:Phospholipon 45 = 1:2, 3.5 h, n=10",2.10 ± 0.36
same,Ulcer Index,"[1]; Table IV, rat, oral, 10 mg/kg KGW, mixture molar ratio Indometacine:Phospholipon 45 = 1:2, 3.5 h, n=10",2.20 ± 0.42
same,Ulcer Index,"[1]; Table IV, rat, oral, 20 mg/kg KGW, mixture molar ratio Indometacine:Phospholipon 45 = 1:2, 3.5 h, n=10",2.30 ± 0.47
same,Ulcer Index,"[1]; Table IV, rat, oral, 30 mg/kg KGW, mixture molar ratio Indometacine:Phospholipon 45 = 1:2, 3.5 h, n=10",2.70 ± 0.30
same,Ulcer Index,[1]; [4],2.60 ± 0.22
same,Variation of Mean Ulcer Factor: Indometacine With p^+ Versus Without p^+,[1]; [4],0%
same,ED50,"[2]; Rattus norvegicus, po",7.24 mg/kg
same,Prevention of Oedema,"[2]; Indometacine 3.16 mg/kg p.o., mixture with Phospholipon 100 7.1 mg/kg p.o.",-47.3%
same,Prevention of Oedema,"[2]; Indometacine 10 mg/kg p.o., mixture with Phospholipon 100 22.4 mg/kg p.o.",-37.8%
same,Effectiveness applied to Rat Paw Oedema,[2]; 3 hours elapsed after application,32
same,Effectiveness applied to Rat Paw Oedema,[2]; 4 hours elapsed after application,40
same,Effectiveness applied to Rat Paw Oedema,[2]; 5 hours elapsed after application,28
same,Effectiveness applied to Rat Paw Oedema,[2]; 6 hours elapsed after application,27
"CCCCC1C(=O)N(c2ccccc2)N(c2ccccc2)C1=O [Phenylbutazone, 4-butyl-1,2-diphenylpyrazolidine-3,5-dion]",Ulcer Index,"[1]; Table II, oral, 25 mg/kg KGW, mixture molar ratio Phenylbutazone:Phospholipon 100 = 2:1, 3.5 h, n=10",0.70 ± 0.05
same,Incidence of Ulcers,"[1]; Table II, oral, 25 mg/kg KGW, without resp. with p^+ (Phospholipon 100, 2:1)",70%
same,Ulcer Index,"[1]; Table II, oral, 50 mg/kg KGW, mixture molar ratio Phenylbutazone:Phospholipon 100 = 2:1, 3.5 h, n=10",1.60 ± 0.42
same,Incidence of Ulcers,"[1]; Table II, oral, 50 mg/kg KGW, without resp. with p^+ (Phospholipon 100, 2:1)",60%
same,Ulcer Index,"[1]; Table II, oral, 100 mg/kg KGW, mixture molar ratio Phenylbutazone:Phospholipon 100 = 2:1, 3.5 h, n=10",1.80 ± 0.84
same,Incidence of Ulcers,"[1]; Table II, oral, 100 mg/kg KGW, without resp. with p^+ (Phospholipon 100, 2:1)",100%
same,Ulcer Index,"[1]; Table II, oral, 200 mg/kg KGW, mixture molar ratio Phenylbutazone:Phospholipon 100 = 2:1, 3.5 h, n=10",1.90 ± 0.66
same,Incidence of Ulcers,"[1]; Table II, oral, 200 mg/kg KGW, one value printed for without and with p^+ (Phospholipon 100, 2:1)",80%
same,ED50,[2]; [3],100 mg/kg
CN1C2CCC1CC(OC(=O)C(CO)c1ccccc1)C2 (stereo not shown) [atropinesulphate],ED50,[1]; po,17.1 mg/kg
CN(C)CCCN1c2ccccc2Sc2ccc(Cl)cc21 [chloropromazine],ED50,"[1]; reference substances, ulcer test, oral",105 mg/kg
